# Experimental data: PubChem BioAssay (NCI)
#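 Five concentrations, 48 hours, 96-well plates. TGI marks complete inhibition of growth.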
# Tests used:
# Test in all cases: DTP human tumour cell line panel, 48 h
# OVCAR-8 ovarian = test system: OVCAR-8 ovarian
# OVCAR-4 ovarian = test system: OVCAR-4 ovarian
# MALME-3M melanoma = test system: MALME-3M melanoma
# UACC-257 melanoma = test system: UACC-257 melanoma
# LOX IMVI melanoma = test system: LOX IMVI melanoma
# SK-MEL-5 melanoma = test system: SK-MEL-5 melanoma
# NCI/ADR-RES ovarian = test system: NCI/ADR-RES ovarian
# A498 renal = test system: A498 renal
# A549 NSCLC = test system: A549 NSCLC
# SNB-19 CNS = test system: SNB-19 CNS
# DU-145 prostate = test system: DU-145 prostate
# ACHN renal = test system: ACHN renal
# HCC-2998 colon = test system: HCC-2998 colon
# HCT-116 colon = test system: HCT-116 colon
# M14 melanoma = test system: M14 melanoma
# MCF7 breast = test system: MCF7 breast
# HCT-15 colon = test system: HCT-15 colon
# K-562 leukemia = test system: K-562 leukemia
# SF-268 CNS = test system: SF-268 CNS
# BT-549 breast = test system: BT-549 breast
# HOP-92 NSCLC = test system: HOP-92 NSCLC
# RXF 393 renal = test system: RXF 393 renal
# IGROV1 ovarian = test system: IGROV1 ovarian
# MDA-MB-435 = test system: MDA-MB-435
# RPMI-8226 leukemia = test system: RPMI-8226 leukemia
# SW-620 colon = test system: SW-620 colon
# UO-31 renal = test system: UO-31 renal
# NCI-H460 lung = test system: NCI-H460 lung
# SN12C renal = test system: SN12C renal
# TK-10 renal = test system: TK-10 renal
# HL-60(TB) leukemia = test system: HL-60(TB) leukemia
# SK-MEL-2 melanoma = test system: SK-MEL-2 melanoma
# OVCAR-5 ovarian = test system: OVCAR-5 ovarian
# NCI-H522 lung = test system: NCI-H522 lung
# T-47D breast = test system: T-47D breast
# COLO 205 colon = test system: COLO 205 colon
# HS 578T breast = test system: HS 578T breast
# SR leukemia = test system: SR leukemia
# MOLT-4 leukemia = test system: MOLT-4 leukemia
# CCRF-CEM leukemia = test system: CCRF-CEM leukemia
# SNB-75 CNS = test system: SNB-75 CNS
# SF-295 CNS = test system: SF-295 CNS
# HOP-62 NSCLC = test system: HOP-62 NSCLC
# MDA-N = test system: MDA-N
# HT29 colon = test system: HT29 colon
# MDA-MB-231 breast = test system: MDA-MB-231 breast
# KM12 colon = test system: KM12 colon
# CAKI-1 renal = test system: CAKI-1 renal
# 786-0 renal = test system: 786-0 renal
# EKVX NSCLC = test system: EKVX NSCLC
# UACC-62 melanoma = test system: UACC-62 melanoma
# SK-OV-3 ovarian = test system: SK-OV-3 ovarian
# U251 CNS = test system: U251 CNS
# SK-MEL-28 melanoma = test system: SK-MEL-28 melanoma
# NCI-H23 lung = test system: NCI-H23 lung
# OVCAR-3 ovarian = test system: OVCAR-3 ovarian
# PC-3 prostate = test system: PC-3 prostate
smiles,measurement,setting,value
O=C(O)CCc1c2ccc(=O)c(O)c-2oc2c(O)c(O)ccc12,TGI,OVCAR-8 ovarian,> 100 µM
same,TGI,OVCAR-4 ovarian,> 100 µM
same,TGI,MALME-3M melanoma,> 100 µM
same,TGI,UACC-257 melanoma,> 100 µM
same,TGI,LOX IMVI melanoma,47.9 µM
same,TGI,SK-MEL-5 melanoma,> 100 µM
same,TGI,NCI/ADR-RES ovarian,> 100 µM
same,TGI,A498 renal,> 100 µM
same,TGI,A549 NSCLC,> 100 µM
same,TGI,SNB-19 CNS,> 100 µM
same,TGI,DU-145 prostate,> 100 µM
same,TGI,ACHN renal,> 100 µM
same,TGI,HCC-2998 colon,> 100 µM
same,TGI,HCT-116 colon,59.5 µM
same,TGI,M14 melanoma,> 100 µM
same,TGI,MCF7 breast,29.3 µM
same,TGI,HCT-15 colon,> 100 µM
same,TGI,K-562 leukemia,55.2 µM
same,TGI,SF-268 CNS,> 100 µM
same,TGI,BT-549 breast,> 100 µM
same,TGI,HOP-92 NSCLC,> 100 µM
same,TGI,RXF 393 renal,> 100 µM
same,TGI,IGROV1 ovarian,> 100 µM
same,TGI,MDA-MB-435,31.1 µM
same,TGI,RPMI-8226 leukemia,75.3 µM
same,TGI,SW-620 colon,59.9 µM
same,TGI,UO-31 renal,> 100 µM
same,TGI,NCI-H460 lung,> 100 µM
same,TGI,SN12C renal,34.8 µM
same,TGI,TK-10 renal,> 100 µM
same,TGI,HL-60(TB) leukemia,> 100 µM
same,TGI,SK-MEL-2 melanoma,> 100 µM
same,TGI,OVCAR-5 ovarian,> 100 µM
same,TGI,NCI-H522 lung,> 100 µM
same,TGI,T-47D breast,> 100 µM
same,TGI,COLO 205 colon,> 100 µM
same,TGI,HS 578T breast,> 100 µM
same,TGI,SR leukemia,> 100 µM
same,TGI,MOLT-4 leukemia,65.7 µM
same,TGI,CCRF-CEM leukemia,13.8 µM
same,TGI,SNB-75 CNS,> 100 µM
same,TGI,SF-295 CNS,82.5 µM
same,TGI,HOP-62 NSCLC,> 100 µM
same,TGI,MDA-N,36.5 µM
same,TGI,HT29 colon,> 100 µM
same,TGI,MDA-MB-231 breast,62.9 µM
same,TGI,KM12 colon,> 100 µM
same,TGI,CAKI-1 renal,> 100 µM
same,TGI,786-0 renal,> 100 µM
same,TGI,EKVX NSCLC,> 100 µM
same,TGI,UACC-62 melanoma,> 100 µM
same,TGI,SK-OV-3 ovarian,> 100 µM
same,TGI,U251 CNS,> 100 µM
same,TGI,SK-MEL-28 melanoma,> 100 µM
same,TGI,NCI-H23 lung,> 100 µM
same,TGI,OVCAR-3 ovarian,> 100 µM
same,TGI,PC-3 prostate,> 100 µM
